Laboratory results taken from patent US10041047B2, “Compositions and methods for epithelial stem cell expansion and culture” (The Brigham and Women's Hospital, Inc., priority 2013, dated 2018).

What was measured:
[1] = system: Lgr5+ stem cells in small intestinal crypts; experiment: Small intestinal crypt culture from Lgr5-GFP mice in Matrigel: cell proliferation and Lgr5-GFP expression; assay type: cell-based, mouse
Experimental: Crypts and single Lgr5-GFP cells were isolated as previously described (Sato et al., 2009). Briefly, the proximal half of the small intestine was harvested, opened longitudinally, and washed with cold PBS to remove luminal content. The tissue was then cut into 2-4 mm pieces with scissors and further washed 5-10 times with cold PBS by pipetting up and down using a 10-ml pipette. Tissue fragments were incubated with 2 mM EDTA in PBS for 30 min on ice. After removal of EDTA, tissue fragments were washed with PBS to release crypts. Supernatant fractions enriched in crypts were collected, passed through a 70 μm cell strainer and centrifuged at 300 g for 5 minutes. The cell pellet was re-suspended with cell culture media without growth factors and centrifuged at 150 g to remove single cells. Crypts were then cultured or used for single cell isolation. To obtain single cells, crypts were incubated in culture medium for 45 minutes at 37° C. and triturated with a glass pipette. Dissociated cells were passed through 20 μm cell strainer, negative stained with propidium iodide and single viable GFP-high cells were sorted by flow cytometry (FACS Aria, BD) as previously described (Sato et al., 2009). Small intestinal crypts isolated from Lgr5-EGFP-ires-CreERT2 mice were embedded in Matrigel and cultured under conventional culture conditions in the presence of EGF, Noggin and R-spondin 1 (collectively referred to as ENR) leading to organoids with crypts and villus-like domains and GFP^+ cells at the crypt tips, consistent with previous reports (Sato et al., 2009). Isolated crypts or single cells were cultured as previously described (Sato et al., 2009) with minimal modification. Briefly, crypts or single cells were entrapped in Matrigel and plated at the center of wells in a 24-well plate. After polymerization of Matrigel (growth factor reduced; BD Bioscience), 500 μl of culture medium (Advanced DMEM/F12 (Life Technologies)) was added containing growth factors including EGF (50 ng/ml, Life Technologies), Noggin (100 ng/ml, Peprotech) and R-spondin 1 (500 ng/ml, R&D) and small molecules including CHIR99021 (3 μM, Stemgent) and Valproic Acid (1 mM, Sigma-Aldrich). For comparison of different culture conditions, small molecules or growth factors were added to freshly isolated crypts immediately after plating in Matrigel to test the ability to minimize potential differentiation of the ISC within the crypts and thus sustain crypt cultures. Cell culture media was changed every other day. For single cell culture, cells were embedded in Matrigel containing Jagged-1 peptide (1 μM; AnaSpec) and Y-27632 (10 μM; Tocris) was added for the first 2 days. Cells were passaged either as cell colonies as previously described (Sato et al., 2009) or as single cells. For single cell passage, cell culture medium was removed and Accutase (Life Technologies) was added. After incubation at 37° C. for 10-20 minutes, cell colonies were dissociated into single cells by pipetting. Cells were then washed, embedded in fresh Matrigel and plated into 24-well plates. Cells cultured in the CV condition were passaged every 6 days at a 1:20 split ratio. Approximately half of the cultured crypts contained GFP+ cells, which is consistent with the in vivo GFP expression of Lgr5-GFP mice (FIG. 1).
The growth factors used in the ENR condition provide essential, but not adequate cues to sustain the self-renewal of Lgr5^+ stem cells. To identify factors essential to maintaining the self-renewal status of intestinal stem cells, selected small molecules that modulate signaling pathways of ISCs, such as Wnt, Notch, and BMP, were tested under the ENR condition, using the Lgr5-GFP reporter.
CHIR is a highly-specific GSK3 inhibitor that activates the Wnt/β-catenin signaling pathway (Bain et al., 2007), and has been used to maintain the self-renewal state of embryonic stem cells (Ying et al., 2008). […]

Lgr5+ stem cells = experiment: Quantitative real-time PCR of mature intestinal epithelial cell markers and Lgr5, 6 day culture (FIG. 6D); assay type: cell-based, mouse
Experimental: FIGS. 6A-6D depict maintenance of Lgr5+ stem cell self-renewal by the combination of CHIR and VPA. Confocal images of Lysozyme (FIG. 6A), Ki67 (FIG. 6B) and EdU (FIG. 6C) staining of organoids cultured under the ENR condition (Upper panels) and colonies cultured in the ENR-CV condition (Lower panels) are shown. For EdU staining, cells were cultured with the thymidine analogue EdU (red) for 1 hour. In FIGS. 6B and 6C, only crypt domains contain Ki67 positive cells or incorporate EdU in the ENR condition (Upper panels) while Ki67 or EdU is present throughout the cell aggregates in the CV condition (Lower panels). FIG. 6D depicts quantitative real-time PCR analysis of relative mRNA expression of markers for mature intestinal epithelial cells cultured for 6 days under conditions as indicated (Intestinal Alkaline phosphatase [Alpi] for enterocytes, Mucin 2 [Muc2] for goblet cells, Chromogranin A [ChgA] for enteroendocrine cells, Lysozyme [Lyz] for Paneth cells, and Lgr5 for intestinal stem cells). ENR-CV(D40) indicates cells that were cultured in the CV condition for 40 days. Scale bars: 50 μm. In FIG. 6D, the series are, from left to right, Alpi, Muc2, ChgA, Lyz, and Lgr5.
As previously reported, cells in the ENR condition grew into organoids with crypt-villus structure containing all intestinal epithelial cell types, confirmed by staining of alkaline phosphatase (Alp) positive enterocytes, Mucin 2 (Muc2) positive goblet cells, Chromogranin A (ChgA) positive enteroendocrine cells, Lysozyme (Lyz) positive Paneth cells and Lgr5-GFP^+ stem cells. Lgr5^+ stem cells only reside at the tips of crypt (FIGS. 6A and 7A). […] In the CV condition, however, GFP^+ stem cells were present throughout the entire colony with minimal presence of Paneth cells (FIG. 6A) and without the presence of other cells types. Compared to ENR culture, Ki67 or EdU positive proliferating cells in the CV condition existed throughout the cell colony (FIGS. 6B and 6C). […] This expression pattern was maintained over multiple passages, and the Lgr5 expression level was maintained (FIG. 6D). […]

[2] = system: Lgr5+ stem/progenitor cells derived from the mouse inner ear; experiment: Culture of inner ear (cochlear) Lgr5-GFP epithelial cells in Matrigel; assay type: cell-based; conditions: single cochlear epithelial cells, 11 days (FIG. 13B)
[3] = system: Notch pathway genes (Notch1, Hes1, Atoh1); experiment: Real-time RT-PCR of Notch pathway genes in cultured crypts; assay type: cell-based, mouse; conditions: VPA added to ENR or ENR-C for 24 hours
Experimental: Crypts were cultured in ENR-C condition with or without DAPT (D, 5 μM) and varying concentration of VPA (V, 0.25-4 mM) for 3 days. […] FIGS. 11B and 11C depict crypts cultured in the ENR (FIG. 11B) or ENR+CHIR (FIG. 11C) conditions for 4 days followed by addition of VPA at different concentrations for another 24 hours. The expression of Notch1, Hes1 and Atoh1 were analyzed by Real-time RT-PCR.
To investigate the effect of VPA on the activation of the Notch pathway, cells cultured in ENR or ENRC conditions were treated with VPA and analyzed for the expression of Notch pathway genes.

[4] = crypts cultured 6 days, agent added to ENR condition
[5] = multiple concentrations (FIG. 9E)

Row | Structure (SMILES) | GFP expression (percentage and relative GFP intensity of GFP+ cells) [1, 4] | cell proliferation of crypt cells (organoid size and cell numbers) ([1]; crypts cultured 6 days, agent added to ENR condition, compared to ENR) | need of R-Spondin1 to promote GFP expression ([1]; increasing the concentration of CHIR, crypts 6 days) | Paneth cell differentiation (Lgr5+ stem cells) | enterocyte differentiation (Lgr5+ stem cells) | GFP expression [2] | cell proliferation [2] | colony-forming efficiency [2] | rescue of cell proliferation and GFP expression following Notch inhibition ([1]; ENR-C with DAPT 5 μM and VPA 0.25-4 mM, 3 days) | GFP expression at multiple concentrations [1, 5] | cell proliferation at higher concentration [1, 5] | secretory differentiation (Lgr5+ stem cells) | expression of Hes1 [3] | expression of Notch1 [3]
1 | Cc1cnc(-c2cnc(NCCNc3ccc(C#N)cn3)nc2-c2ccc(Cl)cc2Cl)[nH]1 [CHIR99021, 6-[[2-[[4-(2,4-Dichlorophenyl)-5-(5-methyl-1H-imidazol-2-yl)-2-pyrimidinyl]amino]ethyl]amino]-3-pyridinecarbonitrile] | increased the percentage and relative GFP intensity | promoted the proliferation | eliminated the need of R-Spondin1 | increased | reduces | not CHIR alone | not CHIR alone | not CHIR alone |  |  |  |  |  | 
2 | CCCC(CCC)C(=O)O [Valproic Acid] | significantly increased |  |  |  |  |  |  |  | rescued | maintained GFP expression | marked proliferation inhibition effect | decreased | moderately decreased | moderately decreased
